Literature values as cited in patent US20240344040A1, “PROKARYOTIC AND EUKARYOTIC CELLS WITH BIOSYNTHESIZED SULFOTYROSINE FOR GENETIC INCORPORATION” (William Marsh Rice University, priority 2023, published 2024).

Details: cells incubated with 1 mM pThr

intracellular detection: cannot be detected intracellularly
Structure (SMILES): C[C@@H](OP(=O)(O)O)[C@H](N)C(=O)O [phosphothreonine]
